Results taken from publication PMC10246557, “Kinetic and inhibition studies on human Jumonji-C (JmjC) domain-containing protein 5” (RSC Chemical Biology, 2023).
Several values for one entry are separate records, joined by “and”; a condition that tells them apart may be missing. Identical values can stand only once. Like-named read-outs stand apart in the source and are kept apart here.

Assays:
human JMJD5 [1] = target: T1, human JMJD5 (Homo sapiens, UniProt Q8N371); test: SPE-MS JMJD5 turnover and kinetic assay (RPS6_128–148 hydroxylation); format: biochemical; conditions: absence of 2OG; JMJD5 0.15 μM, 2OG derivative 400 μM, Fe(II) 20 μM, RPS6_128–148 2.0 μM
T1 construct: made in house; host or cells: Escherichia coli BL21(DE3)
T1 sequence (Q8N371 whole entry): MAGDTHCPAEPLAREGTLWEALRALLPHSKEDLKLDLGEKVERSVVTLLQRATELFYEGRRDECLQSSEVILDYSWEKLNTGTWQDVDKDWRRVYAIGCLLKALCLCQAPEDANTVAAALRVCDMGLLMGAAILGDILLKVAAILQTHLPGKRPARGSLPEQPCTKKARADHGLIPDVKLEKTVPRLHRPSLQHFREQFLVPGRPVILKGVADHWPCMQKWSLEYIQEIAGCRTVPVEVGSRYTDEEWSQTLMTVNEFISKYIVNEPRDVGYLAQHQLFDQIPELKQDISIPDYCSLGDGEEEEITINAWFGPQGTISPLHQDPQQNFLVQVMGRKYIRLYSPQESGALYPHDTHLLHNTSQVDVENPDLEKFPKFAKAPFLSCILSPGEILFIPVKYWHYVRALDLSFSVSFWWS
Protocol: JMJD5 turnover assays for time course and kinetic experiments were performed in 96-well polypropylene assay plates (Greiner) with either […] total reaction volume using the concentrations given in the manuscript or ESI, ^† and JMJD5-catalysed substrate hydroxylation was directly monitored using SPE-MS. […] Assay samples were aspirated under vacuum for 0.6 s and loaded onto a C4 solid phase extraction (SPE) cartridge. After loading, the C4 SPE cartridge was washed with 0.1%v/v aqueous formic acid to remove non-volatile buffer salts (5.5 s, 1.5 mL min^−1). The peptide was eluted from the SPE cartridge with 0.1%v/v aqueous formic acid in 80/20v/v acetonitrile/water into the mass spectrometer (5.5 s, 1.5 mL min^−1) and the SPE cartridge re-equilibrated with 0.1%v/v aqueous formic acid (0.5 s, 1.5 mL min^−1). The mass spectrometer was operated using the MassHunter Workstation B.08.00 software (Agilent), the mass spectrometer parameters were: capillary voltage (4000 V), nozzle voltage (1000 V), fragmentor voltage (365 V), gas temperature (280 °C), gas flow (13 L min^−1), sheath gas temperature (350 °C), sheath gas flow (12 L min^−1). […] Data were exported into Microsoft Excel and used to calculate the % conversion of the hydroxylation reaction using the equation: % conversion = 100 × (integral product peptide)/(integral substrate peptide + integral product peptide).
parameters (continues on the following two pages). Maximum velocities (vapp ) and Michaelis constants (Kapp)
of JMJD5 were determined in independent triplicates, monitoring the JMJD5-catalyzed hydroxylation of the
SPE-MS, as described (Experimental Section).
20 °C). Measurement times were normalized to the first sample injection analyzed after the addition of JMJD5 to
shown as the mean of three independent runs (n = 3; mean ± standard deviation, SD).
hexahydrate (20 μM, (NH4)2Fe(SO4)2·6H2O); and (b) hydroxylation rates used to determine kinetic parameters of
(1 picture or pasted object on this page, not shown here)
Maximum velocities (vapp ) and
Michaelis constants (Kapp) of JMJD5 were determined in independent triplicates for (1R)-3-
(carboxycarbonyl)cyclopentane-1-carboxylic acid (14), monitoring the JMJD5-catalyzed hydroxylation of the
as described (Experimental Section).
pH 7.5, 20 °C). Measurement times were normalized to the first sample injection analyzed after the addition of
(§1) Data are shown as the mean of three independent runs (n = 3; mean ± SD).
to determine kinetic parameters of JMJD5 for 14.

human JMJD5 [2] = target: T1, human JMJD5; test: SPE-MS JMJD5 inhibition assay; format: biochemical; conditions: JMJD5 0.15 μM, 2OG 2.0 μM, Fe(II) 2.0 μM, LAA 100 μM, RPS6_128–148 2.0 μM; read-out: IC50 JMJD5
Protocol: Solutions of the small-molecules (100% DMSO) were dry dispensed across 384 well polypropylene V-bottom assay microplates (Greiner) in an approximately three-fold and 11-point dilution series (100 μM inhibitor top concentration; the final DMSO assay concentration was kept constant at 0.5%v/v) using an ECHO 550 acoustic dispenser (Labcyte). […] Each reaction was performed in technical duplicates in adjacent wells of the assay plates; additionally, assays were performed in two independent duplicates on different days using different inhibitor solutions.
The Enzyme Mixture (25 μL per well), containing 0.3 μM His6-thioredoxin-tagged JMJD5 in buffer (50 mM MOPS, pH 7.5), was dispensed across the inhibitor-containing 384-well plates with a multidrop dispenser (ThermoFischer Scientific) at 20 °C under an ambient atmosphere. The plates were subsequently centrifuged (1000 rpm, 5 s) and incubated for 15 min at 20 °C. […] The plates were centrifuged (1000 rpm, 5 s) and, after incubating for 30 min, the enzyme reaction was stopped by the addition of 10%v/v aqueous formic acid (5 μL per well). The plates were then centrifuged (1000 rpm, 30 s) and analyzed by MS.
Z′-Factors were calculated according to the cited literature using Microsoft Excel.[61]

human KDM4E [3] = target: T2, human KDM4E (Homo sapiens, UniProt B2RXH2); test: KDM4E SPE-MS turnover and kinetic assay (H3 K9(me3) peptide demethylation); format: biochemical; conditions: absence of 2OG, KDM4E 0.15 μM, 2OG derivative 330 μM, Fe(II) 50 μM, ARTAQTARK(me3)STGGIA 10.0 μM
T2 sequence (B2RXH2 1-506): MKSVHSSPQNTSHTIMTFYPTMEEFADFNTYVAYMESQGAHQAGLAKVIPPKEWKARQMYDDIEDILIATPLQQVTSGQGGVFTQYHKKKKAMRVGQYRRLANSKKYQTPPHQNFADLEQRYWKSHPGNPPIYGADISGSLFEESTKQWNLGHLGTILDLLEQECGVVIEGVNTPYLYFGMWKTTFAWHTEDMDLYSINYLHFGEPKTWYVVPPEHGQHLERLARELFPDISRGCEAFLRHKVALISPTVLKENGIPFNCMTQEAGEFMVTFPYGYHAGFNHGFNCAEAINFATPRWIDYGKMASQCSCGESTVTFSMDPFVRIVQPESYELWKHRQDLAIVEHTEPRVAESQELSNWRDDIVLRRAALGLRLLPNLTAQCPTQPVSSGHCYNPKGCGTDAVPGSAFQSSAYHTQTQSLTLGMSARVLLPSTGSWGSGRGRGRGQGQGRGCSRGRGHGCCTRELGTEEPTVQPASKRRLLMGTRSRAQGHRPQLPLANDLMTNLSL
Protocol: KDM4E turnover and inhibition assays were performed as reported using recombinant human KDM4E and a histone 3 K9(me3) derivative (i.e. […](me3)STGGIA)[41] as substrate.[95]
Supplementary Figure S3. Rates of KDM4E-catalyzed Nε-trimethyl lysine demethylations of a histone 3- […]
Maximum velocities (vapp ) and Michaelis […]
catalyzed Nε-trimethyl lysine demethylation of the histone 3 K9(me3)-derived peptide […]
(me3)STGGIA2 by SPE-MS as described;3 note that mono-, di-, and tri-demethylated product […]
buffer (50 mM MES, pH 7.0, 20 °C). Measurement times were normalized to the first sample injection analyzed […]
as §1
(a) Time course of the KDM4E-catalyzed Nε-trimethyl lysine demethylation reaction of the […]

human KDM4E [4] = target: T2, human KDM4E; test: KDM4E SPE-MS inhibition assay; format: biochemical; conditions: KDM4E 0.15 μM, peptide 10.0 μM, LAA 100 μM, FAS 10 μM, 2OG 10 μM
Protocol: KDM4E turnover and inhibition assays were performed as reported using recombinant human KDM4E and a histone 3 K9(me3) derivative (i.e. […](me3)STGGIA)[41] as substrate.[95] […]

human FIH [5] = conditions: absence of 2OG, FIH 0.15 μM, 2OG derivative 330 μM, Fe(II) 50 μM, HIF-1α788–822 5.0 μM, cited from earlier work
human FIH [6] = tested on: human FIH; design: method as in ref 10 (ESI); conditions: FIH 0.15 μM, HIF-1α788-822 5.0 μM, 2OG 10 μM; ref 10 (ESI); cited from earlier work
human AspH [7] = conditions: absence of 2OG, AspH 0.1 μM, 2OG derivative 330 μM, Fe(II) 50 μM, hFX-CP101–119 2.0 μM, cited from earlier work
human AspH [8] = tested on: human AspH; design: method as in ref 9 (ESI); conditions: AspH 0.05 μM, hFX-CP101-119 1.0 μM, 2OG 3.0 μM; ref 9 (ESI); cited from earlier work

Row | KDM4E (%): substrate demethylation with the compound as cosubstrate (human KDM4E [3]; listed as Entry 22) [%] | KDM4E (%): substrate demethylation with the compound as cosubstrate (human KDM4E [3]; listed as Entry 13) [%] | Compound | JMJD5 (%): RPS6_128–148 hydroxylation with the compound as cosubstrate (human JMJD5 [1]) | IC50 (human JMJD5 [2]) [µM] | KDM4E (%): substrate demethylation with the compound as cosubstrate (human KDM4E [3]) [%] | IC50 (human KDM4E [4]) | FIH (%): substrate hydroxylation with the compound as cosubstrate (human FIH [5]) | IC50 (human FIH [6]) [µM] | AspH (%): substrate hydroxylation with the compound as cosubstrate (human AspH [7]) | IC50 (human AspH [8]) [µM] | FIH (%): substrate hydroxylation with the compound as cosubstrate (human FIH [5]; listed as Entry 22) | AspH (%): substrate hydroxylation with the compound as cosubstrate (human AspH [7]; listed as Entry 22) | FIH (%): substrate hydroxylation with the compound as cosubstrate (human FIH [5]; listed as Entry 13) [%] | AspH (%): substrate hydroxylation with the compound as cosubstrate (human AspH [7]; listed as Entry 13) [%]
1 |  |  | O=C(O)C(=O)c1ccc(C(=O)O)cc1F [2OG derivative 28] | < 1% | > 50 | < 1 | > 50 µM | < 1% | > 50 | ~ 45% | > 50 |  |  |  | 
2 |  |  | 4-(2-naphthyl)methyl-2OG [2OG derivative 23] | < 1% | > 50 | < 1 | 6 to 7 µM and ~6.9 µM | < 1% | 2.5 ± 0.1 | < 1% |  |  |  |  | 
3 | < 1 |  | O=C(O)C(=O)C1CC[C@@H](C(=O)O)C1 (mixture of isomers) [2OG derivative 14, (1R)-3-(carboxycarbonyl)cyclopentane-1-carboxylic acid] |  |  |  | 27.9 ± 3.5 µM |  | > 50 |  |  | ~ 2% | ~ 15% |  | 
4 |  |  | O=C(O)C(=O)c1ccc(C(=O)O)c(Br)c1 [2OG derivative 31] | < 1% | > 50 | < 1 | > 50 µM | < 1% | > 50 | ~ 8% | > 50 |  |  |  | 
5 |  |  | Cc1cc(C(=O)O)ccc1C(=O)C(=O)O [2OG derivative 32] | < 1% | > 50 | < 1 | > 50 µM | < 1% | > 50 | ~ 5% | > 50 |  |  |  | 
6 |  |  | 4-methyl-2OG [2OG derivative 8] | ~ 10% | > 50 | < 1 |  | ~ 45% | > 50 | ~ 10% | > 50 |  |  |  | 
7 |  |  | O=C(O)C(=O)C1(C(=O)O)CC1 [2OG derivative 25] | < 1% | > 50 | < 1 | > 50 µM | < 1% | > 50 | < 1% | 3.3 ± 1 |  |  |  | 
8 |  |  | O=C(O)C(=O)c1ccc(C(=O)O)cc1Br [2OG derivative 30] | < 1% | > 50 | < 1 | > 50 µM | < 1% | > 50 | ~ 20% | > 50 |  |  |  | 
9 |  |  | O=C(O)C(=O)C1C2C=CC(C2)C1C(=O)O (racemic) [2OG derivative 26] | < 1% | > 50 | < 1 | > 50 µM | < 1% | > 50 | < 1% |  |  |  |  | 
10 |  | < 1 | CC(C)(CC(=O)C(=O)O)C(=O)O [2OG derivative 9, 4,4-dimethyl-2OG] |  |  |  | > 30 µM |  | > 50 |  | ~0.3 |  |  | < 5 | < 1
11 |  |  | O=C(O)C(=O)c1ccc(C(=O)O)s1 [2OG derivative 34] | < 1% | > 30 | < 1 | > 50 µM | < 1% | > 50 | ~ 15% |  |  |  |  | 
